Measurements published in patent US20020086865A1, “Use of growth hormone secretagogues for stimulating or increasing appetite” (priority 2000, published 2002).
Square brackets hold non-standard residues; d marks the D form. Peptide text beside a SMILES is read from it. dTrp(2-Me) = Cc1[nH]c2ccccc2c1C[C@@H](N)C(=O)O; d2Nal = N[C@H](Cc1ccc2ccccc2c1)C(=O)O

Assays:
free-feeding rats = conditions: intracerebroventricular administration; cited from earlier work
[1] = orally active; cited from earlier work
satiated rats = conditions: s.c.; cited from earlier work
[2] = tested on: healthy, young male subjects; conditions: 100 mg single oral dose in a solution of water, fasted state; four subjects on active
Description: The test compound or placebo was administered orally in a solution of water to the subjects in a fasted state. The doses evaluated were 0.3, 1, 3, 10, 30 and 100 mg of the test compound or placebo. Each participant was studied at only one dose level.

rats = conditions: intracerebroventricular; cited from earlier work
[3] = tested on: young women with anorexia nervosa; conditions: cited from earlier work

C[C@H](NC(=O)[C@@H](Cc1ccc2ccccc2c1)NC(=O)[C@@H](C)N)C(=O)N[C@@H](Cc1c[nH]c2ccccc12)C(=O)N[C@H](Cc1ccccc1)C(=O)N[C@@H](CCCCN)C(N)=O [KP-102] (H-[dA][d2Nal]AW[dF]K-NH2)
food intake (free-feeding rats): increased food intake

CC(C)(N)C(=O)N[C@H](COCc1ccccc1)C(=O)N1CCC2(CC1)CN(S(C)(=O)=O)c1ccccc12 [MK-677]
diet-induced catabolism [1]: reverses diet-induced catabolism

Cc1[nH]c2ccccc2c1C[C@@H](NC(=O)[C@@H](N)Cc1cnc[nH]1)C(=O)N[C@@H](C)C(=O)N[C@@H](Cc1c[nH]c2ccccc12)C(=O)N[C@H](Cc1ccccc1)C(=O)N[C@@H](CCCCN)C(N)=O [hexarelin] (H-H[dTrp(2-Me)]AW[dF]K-NH2)
GH release (satiated rats): dose dependently stimulated | feeding behavior (satiated rats): dose dependently stimulated

CC(C)(N)C(=O)N[C@H](COCc1ccc(F)cc1F)C(=O)N1CCC2=NN(CC(F)(F)F)C(=O)[C@]2(Cc2ccccn2)C1.O=C(O)C(O)C(O)C(=O)O [test compound, (L)-(+)-tartaric acid salt of 2-amino-N-(1-(R)-(2,4-difluoro-benzyloxymethyl)-2-oxo-2-(3-oxo-3a-(R)-pyridin-2-ylmethyl-2-(2,2,2-trifluoro-ethyl)-2,3,3a,4,6,7-hexahydro-pyrazolo-[4,3-c]pyridin-5-yl)-ethyl)-2-methyl-propionamide]
subjects who self-reported feeling hungry (case report forms) [2]: two of the four subjects

GHRP-6
GH release (satiated rats): dose dependently stimulated | feeding behavior (satiated rats): dose dependently stimulated | eating (rats): stimulated eating | plasma growth hormone responses (rats): without affecting plasma growth hormone responses

recombinant growth hormone: recombinant growth hormone
IGF-1 levels [3]: normalizes IGF-1 levels | body weight [3]: increases body weight | eating behavior [3]: improves eating behavior
